Measured values from ChEMBL document CHEMBL5614376, “Discovery of MT-1207: A Novel, Potent Multitarget Inhibitor as a Promising Clinical Candidate for the Treatment of Hypertension” (J Med Chem, 2024).
Active and inactive are the calls of the source. The calls are words filed in the database; no cut-off is given here.

Columns and labels:
[1] = target: T1, 5-hydroxytryptamine receptor 2A (Homo sapiens, UniProt P28223); assay: Displacement of [3H]Ketanserin from recombinant human 5-HT2A receptor extracted from CHO cell membrane at 1 nM incubated for 60 mins by radioligand binding assay relative to control; format: cell membranes; conditions: filed as antagonist
T1 sequence (P28223 whole entry): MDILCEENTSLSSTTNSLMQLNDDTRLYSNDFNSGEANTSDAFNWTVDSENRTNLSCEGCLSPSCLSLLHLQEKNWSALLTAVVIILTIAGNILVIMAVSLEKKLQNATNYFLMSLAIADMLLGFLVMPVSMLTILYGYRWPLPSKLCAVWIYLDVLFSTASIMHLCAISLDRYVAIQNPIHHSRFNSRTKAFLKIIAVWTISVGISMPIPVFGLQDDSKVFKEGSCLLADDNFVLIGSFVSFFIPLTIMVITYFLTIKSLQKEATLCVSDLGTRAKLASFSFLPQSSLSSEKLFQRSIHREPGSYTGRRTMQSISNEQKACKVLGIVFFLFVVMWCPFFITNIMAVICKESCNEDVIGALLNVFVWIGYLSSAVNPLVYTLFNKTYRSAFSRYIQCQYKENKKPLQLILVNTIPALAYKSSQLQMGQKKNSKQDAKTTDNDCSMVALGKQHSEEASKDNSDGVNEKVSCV

[2] = target: T1, 5-hydroxytryptamine receptor 2A; assay: Displacement of [3H]Ketanserin from recombinant human 5-HT2A receptor extracted from CHO cell membrane at 10 nM incubated for 60 mins by radioligand binding assay relative to control; format: cell membranes; conditions: filed as antagonist
[3] = target: T1, 5-hydroxytryptamine receptor 2A; assay: Displacement of [3H]Ketanserin from recombinant human 5-HT2A receptor extracted from CHO cell membrane incubated for 60 mins by radioligand binding assay; format: cell membranes
[4] = Plasma protein binding in Sprague-Dawley rat at 1 uM incubated for 30 mins; format: ADME, cell-free; conditions: read-out: PPB (converted)
[5] = Plasma protein binding in Sprague-Dawley rat at 10 uM incubated for 30 mins; format: ADME, cell-free; conditions: read-out: PPB (converted)
[6] = Plasma protein binding in Beagle dog at 1 uM incubated for 30 mins; format: ADME, cell-free, Canis lupus familiaris; conditions: read-out: PPB (converted)
[7] = Plasma protein binding in Cynomolgus monkey at 10 uM incubated for 30 mins; format: ADME, cell-free, Macaca fascicularis; conditions: read-out: PPB (converted)
[8] = Plasma protein binding in human at 0.1 uM incubated for 30 mins; format: ADME, cell-free; conditions: read-out: PPB (converted)
[9] = Plasma protein binding in human at 10 uM incubated for 30 mins; format: ADME, cell-free; conditions: read-out: PPB (converted)
[10] = Metabolic stability in macaque plasma assessed as enzymatic hydrolysis at 50 to 10000 ng/ml incubated upto 120 mins; format: ADME, cell-free; conditions: macaca, 2 h, dose 50-10000 ng/ml
[11] = Metabolic stability in rat liver microsomes assessed as drug elimination at 10 umol/L incubated for 5 mins in presence of NADPH by LC-MS/MS analysis; format: ADME, Microsome; conditions: 10 µM, dose 10 µmol/L
[12] = Metabolic stability in Beagle dog liver microsomes assessed as drug elimination at 10 umol/L incubated for 5 mins in presence of NADPH by LC-MS/MS analysis; format: ADME, Canis lupus familiaris, Microsome; conditions: 10 µM, dose 10 µmol/L
[13] = Cmax in Sprague-Dawley rat at 1 mg/kg, po measured for 24 hrs by UPLC/MS/MS analysis; format: ADME, organism-based; conditions: in vivo
[14] = Apparent oral clearance in Sprague-Dawley rat at 1 mg/kg, po measured for 24 hrs by UPLC/MS/MS analysis; format: ADME, organism-based; conditions: in vivo
[15] = Oral bioavailability in Sprague-Dawley rat at 1 mg/kg measured for 24 hrs by UPLC/MS/MS analysis; format: ADME, organism-based; conditions: in vivo
[16] = Half life in Sprague-Dawley rat at 9 mg/kg, po measured for 24 hrs by UPLC/MS/MS analysis; format: ADME, organism-based; conditions: in vivo
[17] = AUC (0 to t) in Sprague-Dawley rat at 9 mg/kg, po measured for 24 hrs by UPLC/MS/MS analysis; format: ADME, organism-based; conditions: in vivo
[18] = tested on: Rattus norvegicus; assay: Effect on heart rate in 2K2C renovascular hypertensive Sprague-Dawley rat model at 10 mg/kg, po measured after 9 weeks; format: functional, organism-based
[19] = tested on: Rattus norvegicus; assay: Effect on postural hypotension in Sprague-Dawley rat assessed as change in systolic blood pressure at 2.5 mg/kg, po treated for >30 mins followed by induction of postural hypotension measured immediately after postural change (reference value: 131 +/- 9 mmHg); format: functional; conditions: 0.5 h
[20] = Acute toxicity in Sprague-Dawley rat assessed as unscheduled animal fatality at 250 to 1000 mg/kg, po single administration measured for 14 days; format: organism-based; conditions: in vivo, 336 h, dose 250-1000 mg/kg, time 14 day
[21] = Acute toxicity in Sprague-Dawley rat assessed as discernible drug-related alterations at 250 to 1000 mg/kg, po single administration measured for 14 days; format: organism-based; conditions: in vivo, 336 h, dose 250-1000 mg/kg, time 14 day
[22] = Acute toxicity in Sprague-Dawley rat assessed as change in body weight at 250 to 1000 mg/kg, po single administration measured for 14 days; format: organism-based; conditions: in vivo, 336 h, dose 250-1000 mg/kg, time 14 day
[23] = Toxicity in male Sprague-Dawley rat assessed as reduction in body weight at 100 mg/kg, po qd treated for 4 days consecutively; format: organism-based; design: scale not given: the % may be the effect or the level left; conditions: in vivo, 96 h, time 4 day
[24] = Toxicity in female Sprague-Dawley rat assessed as reduction in body weight at 100 mg/kg, po qd treated for 4 days consecutively; format: organism-based; design: scale not given: the % may be the effect or the level left; conditions: in vivo, 96 h, time 4 day
[25] = Tmax in male Sprague-Dawley rat at 10 mg/kg, po measured on day 1 by UP/LC/MS/MS analysis; format: ADME, organism-based; conditions: in vivo, time 1 day
[26] = Cmax in female Sprague-Dawley rat at 10 mg/kg, po measured on day 1 by UP/LC/MS/MS analysis; format: ADME, organism-based; conditions: in vivo, time 1 day
[27] = Cmax in female Sprague-Dawley rat at 30 mg/kg, po measured on day 1 by UP/LC/MS/MS analysis; format: ADME, organism-based; conditions: in vivo, time 1 day
[28] = AUC (0 to t) in male Sprague-Dawley rat at 30 mg/kg, po measured on day 1 by UP/LC/MS/MS analysis; format: ADME, organism-based; conditions: in vivo, time 1 day
[29] = Tmax in male Sprague-Dawley rat at 10 mg/kg, po qd treated for 13 weeks consecutively measured after recovery period on day 91 by UP/LC/MS/MS analysis; format: ADME, organism-based; conditions: in vivo, time 91 day
[30] = Cmax in female Sprague-Dawley rat at 10 mg/kg, po qd treated for 13 weeks consecutively measured after recovery period on day 91 by UP/LC/MS/MS analysis; format: ADME, organism-based; conditions: in vivo, time 91 day
[31] = AUC (0 to t) in male Sprague-Dawley rat at 30 mg/kg, po qd treated for 13 weeks consecutively measured after recovery period on day 91 by UP/LC/MS/MS analysis; format: ADME, organism-based; conditions: in vivo, time 91 day
[32] = AUC (0 to t) in female Sprague-Dawley rat at 30 mg/kg, po qd treated for 13 weeks consecutively measured after recovery period on day 91 by UP/LC/MS/MS analysis; format: ADME, organism-based; conditions: in vivo, time 91 day

For Cl.c1ccc2c(c1)nnn2CCCCN1CCN(c2nsc3ccccc23)CC1, the inhibition [1] was 43.7%, the inhibition [2] was 96% and the IC50 [3] was 0.27 nM. The Ki [3] was 0.079 nM, the fraction unbound at 0.5 h, 1 µM [4] was 0.019 and the fraction unbound at 0.5 h, 10 µM [5] was 0.017. For the same compound, the fraction unbound at 0.5 h, 1 µM [6] was 0.006, the fraction unbound at 0.5 h, 10 µM [7] was 0.005 and the fraction unbound at 0.5 h, 0.1 µM [8] was 0.003. The fraction unbound at 0.5 h, 10 µM [9] was 0.004, the Stability [10] was “Stable” and the Drug excretion [11] was “Active”. For the same compound, the Drug excretion [12] was “Active”, the Cmax [13] was 33.3 ng/mL and the CL/F [14] was 388 mL/min. The bioavailability [15] was 11.7%, the half-life [16] was 1.89 h and the AUC(0-t) at 24 h [17] was 605 ng·h/mL. The Activity [18] was “Active”, the Activity [19] was 96 mmHg and the Activity [20] was “Non-Toxic”. The Activity [21] was “Non-Toxic”, the Activity [22] was “Non-Toxic” and the Activity [23] was ~ 5.4%. The Activity [24] was ~ 3.3%, the Tmax [25] was 1 h and the Cmax [26] was 88.7 ng/mL. It also gave a Cmax [27] of 408 ng/mL, an AUC(0-t) at 24 h [28] of 318 ng·h/mL and a Tmax [29] of 1.3 h. For the same compound, the Cmax [30] was 140 ng/mL, the AUC(0-t) at 2184 h [31] was 672 ng·h/mL and the AUC(0-t) at 2184 h [32] was 1470 ng·h/mL.
